Reference: publication PMC10232738, “Five blueberry anthocyanins and their antioxidant, hypoglycemic, and hypolipidemic effects in vitro” (Frontiers in Nutrition, 2023)
Marks after values point to notes of the source that are not given here. Each block holds one compound with its values, some of them ahead of it.

Key:
[1] = DPPH radical scavenging assay; conditions: 30 min, 517 nm, mean ± SD (n = 3)
Experimental: DPPH assay was determined according to the reported method ([10]). The tested compounds were dissolved in ethanol and diluted to a series of concentrations to be used as test solutions. A total of 100 μl 0.16 mmol/L DPPH in methanol (5 mg/100 ml) was mixed with 100 μl of the test solution. […] A blank sample containing 100 μl of methanol in the DPPH solution was measured. The same procedure was followed for the positive control, ascorbic acid. All samples were analyzed in triplicate at five different concentrations around the EC50 values.

[2] = ABTS radical cation scavenging assay; conditions: 6 min, 734 nm, mean ± SD (n = 3)
Experimental: The ABTS assay was performed as the reported method ([10]). Briefly, ABTS^+ radical cation was prepared by mixing a 7 mM aqueous stock solution of ABTS^+ and 2.6 mM potassium peroxydisulfate. The reaction mixture was stored in the dark at room temperature for 12 h prior to use. […] Then, 50 μl of the test solution was added to 200 μl of the ABTS^+ radical cation solution. […] A blank sample containing ABTS^+ solution was measured.

[3] = Oxygen radical absorbance capacity (ORAC) assay; conditions: Trolox equivalents, pH 7.4, mean ± SD (n = 3)
Experimental: The oxygen radical absorbance capacity (ORAC) assay was performed according to the reported method with slight modifications ([11]). The assay was carried out in black-walled 96-well plates. Tested compounds were dissolved in 75 mM phosphate buffer (pH 7.4). […] A blank sample containing 20 μl of phosphate buffer in the reaction mix was prepared and measured. The area under the curve (AUC) was calculated for each sample by integrating the relative fluorescence curve. The net AUC of the sample was calculated by subtracting the AUC of the blank. The regression equation between net AUC and series concentration of Trolox was determined to establish a standard curve, and ORAC values were expressed as μmol Trolox equivalents/μmol samples using the standard curve established previously. All samples were analyzed in triplicate.

[4] = target: α-glucosidase; assay: α-glucosidase inhibitory activity assay (p-NPG substrate); format: biochemical, Saccharomyces cerevisiae; conditions: pH 6.9, 37°C, mean ± SD (n = 3)
Description: Acetonitrile, methanol, and formic acid (HPLC grade) were obtained from Tedia Co. Inc. (Fairfield, OH, USA). Ethanol and phosphoric acid were purchased from Sinopharm Chemical Reagent Co. Ltd. (Shanghai, China). Folin-Ciocalteu's phenol reagent, 2,2-diphenyl-1-picrylhydrazyl (DPPH), 2,2′-azinobis-3-ethylbenzothiazoline-6-sulfonic acid (ABTS), α-glucosidase (from Saccharomyces cerevisiae), 4-nitrophenyl-α-D-glucose (p-NPG), and 6-hydroxy-2,5,7,8-tetramethylchroman-2-carboxylic acid (Trolox) were obtained from Sigma-Aldrich (St. Louis, MO, USA). Sodium fluorescein, 2,2′-azobis-2-amidino-propane (AAPH), metformin (Met), oleic acid (OA), and 2-[N-(7-Nitrobenz-2-oxa-1,3-diazol-4-yl)amino]-2-deoxy-D-glucose (2-NDBG) were obtained from Aladdin (Shanghai, China). The assay kits of triglycerides (TG), total cholesterol (TC), and oil-red-O staining were obtained from Jiancheng Bioengineering Institute (Nanjing, China). The BCA assay kit was obtained from Biosharp (Hefei, China). Dulbecco's modified Eagle's medium (DMEM), penicillin-streptomycin, and fetal bovine serum (FBS) were purchased from Invitrogen-Gibco (Grand Island, NY). The chemicals and reagents used in this study were all of pure analytical grade.
The α-glucosidase inhibitory activity was determined as previous methods with slight modifications ([12]). In short, the diluted sample working solution (1 μl) was added to 3 μl of α-glucosidase (0.5 U/ml in 0.1 M sodium phosphate buffer, pH 6.9) and 156 μl of 0.1 M sodium phosphate buffer (pH 6.9). Then, the mixture was incubated at 37°C for 20 min, and 40 μl of 1.5 mM p-NPG (dissolved in 100 mM sodium phosphate buffer, pH 6.9) was added and incubated for 20 min. Absorbance was measured by a microplate reader (Molecular Device, Sunnyvale, CA, USA). A complete reaction mixture without a sample was used as the control. Three parallel operations were performed. All the samples were analyzed in triplicate at five different concentrations around the IC50 values.

[5] = system: HepG2 cells; assay: 2-NBDG glucose uptake in HG-OA stimulated HepG2 cells; format: cell-based, Human; conditions: 12 h, HG-OA (36 mM glucose, 0.25 mM OA) treated HepG2, p < 0.001 vs model
Experimental: (§1) HepG2 cells were starved in DMEM with 2% FBS for 9 h. To establish an in vitro model of diabesity, cells were stimulated with high glucose (36 mM glucose) and 0.25 mM OA for 12 h according to our previous study ([14]). Then, BB1-BB5 (50 and 100 μM) and Met (100 μM) were added for another 12 h. OA or BB1-BB5 was dissolved in DMSO and added to HepG2 cells in DMEM, and the final DMSO concentration received by the cells was 0.1% (v/v).
After the model was established, HepG2 cells were treated with BB1-BB5 (50 and 100 μM in low and high doses, respectively) for 12 h. 2-NBDG, a fluorescent deoxyglucose, was added to measure glucose uptake ([15]). The culture solution was discarded, and 2-NBDG (100 μM, diluted in DMEM without serum) was added and incubated again for 40 min. […] In total, eight parallels were set up for each sample.

[6] = system: HepG2 cells; assay: Intracellular total cholesterol (TC) in HG-OA stimulated HepG2 cells; format: cell-based, Human; conditions: 12 h, HG-OA treated HepG2, vs model group
Experimental: as §1
After the model was established, HepG2 cells were treated with BB1–BB5 (50 and 100 μM in low and high doses, respectively) in 6-well plates for 12 h. The culture solution was discarded, and 200 μl of RIPA lysis buffer was added after three washes with PBS and placed on a shaker for 10 min. The cell contents were homogenized and centrifuged (4°C, 10,000 rpm) to extract the supernatant. The TC and TG level in HepG2 cells were tested using the commercial kit by glycerol phosphate oxidase (GPO)-peroxidase (PAP) method based on several enzyme-driven reactions. The end product, hydrogen peroxide, which can be oxidatively coupled with 4-aminoantipyrine and phenol in the presence of peroxidase to yield a chromogen, was measured at 500 nm ([16]). In total, eight replicates were set for each sample.

- EC50 [1]: 61.4 ± 2.29 µM
- EC50 [2]: 20.7 ± 0.67 µM
- IC50 [4]: 240 ± 9.2 µM
Structure (SMILES): OC[C@H]1O[C@@H](Oc2cc3c(O)cc(O)cc3[o+]c2-c2cc(O)c(O)c(O)c2)[C@H](O)[C@@H](O)[C@@H]1O [BB2, delphinidin-3-O-glucoside]
- ORAC [3]: 9.44 ± 0.12^d μmol Trolox/μmol
- Glucose uptake capacity (2-NBDG fluorescence) ([5]; 100 μM): significant increase

- EC50 [1]: 112 ± 15.3 µM
- EC50 [2]: 44.5 ± 0.55 µM
Structure (SMILES): O=C1O[C@H]([C@@H](O)CO)C(O)=C1O [ascorbic acid, reference compound]

Second part, the compound before the results:

Structure (SMILES): OCC1OC(Oc2cc3c(O)cc(O)cc3[o+]c2-c2cc(O)c(O)c(O)c2)C(O)C(O)C1O (centres unmarked) [BB1, delphinidin-3-O-galactoside]
- EC50 [1]: 39.91 ± 0.24 µM
- EC50 [2]: 19 ± 0.2 µM
- ORAC [3]: 13.23 ± 0.03^a μmol Trolox/μmol
- IC50 [4]: 68.3 ± 12.4 µM

Structure (SMILES): COc1cc(-c2[o+]c3cc(O)cc(O)c3cc2OC2OC(CO)C(O)C(O)C2O)cc(O)c1O (centres unmarked) [BB3, petunidin-3-O-galactoside]
- EC50 [1]: 63.2 ± 2 µM
- EC50 [2]: 24.2 ± 1.88 µM
- ORAC [3]: 11.31 ± 0.22^c μmol Trolox/μmol
- IC50 [4]: 68.5 ± 20.9 µM
- Glucose uptake capacity (2-NBDG fluorescence) ([5]; 50 μM): significant increase
- Glucose uptake capacity (2-NBDG fluorescence) ([5]; 100 μM): significant increase
- Intracellular TC levels ([6]; 100 μM): noticeably reduced

Structure (SMILES): COc1cc(-c2[o+]c3cc(O)cc(O)c3cc2O[C@@H]2O[C@H](CO)[C@@H](O)[C@H](O)[C@H]2O)cc(O)c1O [BB4, petunidin-3-O-glucoside]
- EC50 [1]: 62.11 ± 0.27 µM
- EC50 [2]: 39.3 ± 1.55 µM
- ORAC [3]: 11.02 ± 0.16^c μmol Trolox/μmol
- IC50 [4]: 218 ± 22.7 µM
- Glucose uptake capacity (2-NBDG fluorescence) ([5]; 100 μM): significant increase
- Intracellular TC levels ([6]; 50 μM): noticeably reduced
- Intracellular TC levels ([6]; 100 μM): noticeably reduced

Structure (SMILES): COc1cc(-c2[o+]c3cc(O)cc(O)c3cc2OC2OC(CO)C(O)C(O)C2O)cc(OC)c1O (centres unmarked) [BB5, malvidin-3-O-galactoside]
- EC50 [1]: 38.8 ± 3.33 µM
- EC50 [2]: 14.3 ± 1 µM
- ORAC [3]: 11.89 ± 0.13^b μmol Trolox/μmol
- IC50 [4]: 185 ± 10.9 µM
- Glucose uptake capacity (2-NBDG fluorescence) ([5]; 50 μM): significant increase
- Glucose uptake capacity (2-NBDG fluorescence) ([5]; 100 μM): significant increase
- Intracellular TC levels ([6]; 100 μM): noticeably reduced
